Source: ChEMBL document CHEMBL3217619, “Design and synthesis of trans-2-substituted-cyclopropane-1-carboxylic acids as the first non-natural small molecule inhibitors of O-acetylserine sulfhydrylase” (Medchemcomm, 2012)

Key:
[1] = Binding affinity to Haemophilus influenzae OASS-A expressed in Escherichia coli assessed as dissociation constant by fluorometric analysis
[2] = Binding affinity to Haemophilus influenzae OASS-A expressed in Escherichia coli using OAS/TNB as substrate assessed as dissociation constant
[3] = Inhibition of Haemophilus influenzae OASS-A expressed in Escherichia coli using OAS/TNB as substrate by spectrophotometric analysis
[4] = Competitive inhibition of Haemophilus influenzae OASS-A expressed in Escherichia coli using OAS/TNB as substrate by ping-pong analysis

Compound	Kd [1]	other results
CCCOC[C@H]1C[C@@H]1C(=O)O (racemic)	6.5 µM	–
CCOC(=O)[C@H]1C[C@@H]1C(=O)O (racemic)	760 µM	–
CCOC(=O)[C@H]1C[C@H]1C(=O)O (racemic)	4700 µM	–
C/C=C/[C@H]1C[C@@H]1C(=O)O (racemic)	1.46 µM	Kd [2]: 200 µM; IC50 [3]: 700 µM; IC50 [4]: 600 µM
CC(C)OC(=O)[C@H]1C[C@@H]1C(=O)O (racemic)	513 µM	–
CCOC[C@H]1C[C@@H]1C(=O)O (racemic)	5.3 µM	–
CC(C)COC(=O)[C@H]1C[C@@H]1C(=O)O (racemic)	950 µM	–
CC/C=C/[C@H]1C[C@@H]1C(=O)O (racemic)	21.5 µM	–
